Test results as given in patent publication US8163939B2, “Ascorbic acid derivative or salt thereof, production method thereof, and cosmetic” (Seikwa Kasei Company, Limited, priority 2007, dated 2012).

Key:
[1] = system: Normal human dermal fibroblasts; experiment: Collagen production of human fibroblast (Sircol collagen assay, 100 μM, 48 hours); type: cell-based; conditions: cultured 48 hours; for activity at 100 µM: Homo sapiens, Fibroblast, N=4, read-out: Collagen production promoting effect (collagen production amount, % of control group); for Collagen production promoting effect (collagen production amount, % of control group): N=4
Description: (§1) Normal human dermal fibroblasts were regulated with a 10% (v/v) fetal bovine serum (manufactured by Roshe Diagnostics)-containing D-MEM so as to give a cell density of 2.5×10^4 cells/well, then, pre-incubation for 24 hours was performed on a 96-well plate. After the medium was removed, a sample regulated with a 5% (v/v) fetal bovine serum-containing D-MEM to a concentration of 100 μM was added to each well, then, cultured for 48 hours under 37° C. and 5% CO2. After completion of culturing, the amount of free collagen was measured using Sircol collagen assay kit (manufactured by Biocolor). The measurement was carried out at N=4.
The collagen production amount in measuring a sample at a concentration of 100 μM was compared with the control group, and the results thereof (% value when the control group is 100%) are shown in Tables 44 and 45 based on the following standard.

B16 melanoma 4A5 cell = experiment: Whitening test: theophylline-induced melanine production in B16 melanoma 4A5 cells; type: cell-based, mouse; conditions: sample at a concentration of 100 μM or less; theophylline-induced melanine production; 3 days culture; N=4;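 also: grades: ± under 20% + 20-40% ++ 40-70% +++ 70-100% suppression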
Description: As a test for a whitening effect, evaluation of the action of B16 melanoma 4A5 cell on theophylline-induced melanine production was carried out on an ascorbic acid derivative of the present invention, according to the following procedure. The same evaluation was carried out also on ascorbic acid, known compounds: ascorbic acid salts, and ascorbic acid derivatives, as comparison. The results are shown in Tables 38 to 40. • (1) B16 mouse melanoma 4A5 strain was sowed onto a 48-well plate at a cell density of 2.0×10^4 cells/well. • (2) Culturing was performed for 24 hours with Dulbecco's Modified Eagle's medium (manufactured by SIGMA. Hereinafter, abbreviated as D-MEM) containing 10% fetal bovine serum (manufactured by Roshe Diagnostics). Then, it was changed to 0.2 mM theophylline and a 10% fetal bovine serum-containing D-MEM which contains a sample of given concentration. • (3) After culturing for 3 days in the co-existence of a sample, the medium was removed using an aspirator. Then, after distilled water was added, cells were broken by an ultrasonic wave. • (4) Thereafter, the amount of protein was determined using BCA protein assay kit (manufactured by PIERCE), and the produced amount of melanine was measured by an alkali solubilizing method. To the cell-destructed solution was added sodium hydroxide so as to give a final concentration of 2N and the mixture was dissolved by heating (60° C., 15 minutes), then, the absorbance at 450 nm was measured using a micro plate reader. The melanine amount was calculated from a calibration curve made using synthetic melanine (SIGMA) as a standard. The melanine amount per unit protein was calculated by dividing the melanine amount by the protein amount. • (5) The melanine production suppressing rate was calculated according to the following formula. Melanine production suppressing rate (%)=[1−(A−B)/(C−B)]×100 [wherein, A represents the melanine amount per unit protein (g/g) in adding a sample, B represents the melanine amount per unit protein (g/g) in the normal group, and C represents the melanine amount per unit protein (g/g) in the control group.]
In the following Tables, the melanine production suppressing rate in measuring a sample at a concentration of 100 μM or less is expressed as described below. The measurement was carried out at N=4.

[2] = Stability Test 2: 2% aqueous solution, pH7, 50° C., 4 weeks (residual rate, odor, coloration); type: physicochemical
Description: (§2) Aqueous solutions (2%) of various test samples were adjusted to pH7 with a dilute sodium hydroxide aqueous solution, and charged into 50 mL screw tubes, and the tubes were sealed and stored at room temperature for 4 weeks. Thereafter, HPLC measurement were performed (using liquid chromatography manufactured by Tosoh Corp.) and the residual rate was obtained based on the peak area. The residual rate, odor(odor change) and degree of coloration were evaluated based on the following methods and standards, and the results are shown in Table 41.
The same test as in Test Example 2 was carried out excepting that the sample was stored at 50° C. for 4 weeks instead of storing at room temperature for 4 weeks.

[3] = Stability Test 1: 2% aqueous solution, pH7, room temperature, 4 weeks (residual rate, odor, coloration); type: physicochemical
Description: as §2
◯: 80% or more and less than 90%
Δ: 60% or more and less than 80%
X: 20% or more and less than 60%
It was evaluated according to the following criterion by 10 panelists.
Based on the evaluation results, classification was conducted as shown below.
◯: total point of 10 panelists is 25 or more
Δ: total point of 10 panelists is 16 to 24
X: total point of 10 panelists is 15 or less
3: almost no change as compared with that immediately after preparation
2: coloration is observed as compared with that immediately after preparation
1: intense coloration is observed as compared with that immediately after preparation

[4] = system: Normal human dermal fibroblasts; experiment: Collagen production of human fibroblast 2 (100 μM or 500 μM; 2, 4 and 7 days); type: cell-based; conditions: for collagen production promoting effect over time (in words): 100 μM or 500 μM, culturing 2, 4 and 7 days; for Collagen production amount in comparison with the control group (% value when the control group is 100%): 100 μM or 500 μM (not stated which), average ± standard error, N=4
Description: as §1
Free collagen was measured under the same conditions as in Test Example 5 excepting that the concentration of each sample was 100 μM or 500 μM and culturing was carried out for 2 days, 4 days and 7 days. The measurement was carried out at N=4, and the average and standard error, in four test examples, of values of the collagen production amount in comparison with the control group (% value when the control group is 100%) are shown in Tables 46 and 47.

[5] = storage period 2 weeks, 10 panelists
[6] = storage period 4 weeks, 10 panelists
[7] = Table 46, culturing period 2 days
[8] = Table 46, culturing period 4 days
[9] = Table 46, culturing period 7 days
[10] = Table 47, culturing period 2 days
[11] = Table 47, culturing period 4 days
[12] = Table 47, culturing period 7 days

Row | SMILES | activity at 100 µM [1] | Whitening effect (melanine production suppressing rate) (B16 melanoma 4A5 cell) | Collagen production amount in comparison with the control group (% value when the control group is 100%) [4, 7] | Collagen production amount in comparison with the control group (% value when the control group is 100%) [4, 8] | Collagen production amount in comparison with the control group (% value when the control group is 100%) [4, 9] | Collagen production promoting effect (collagen production amount, % of control group) [1] | Collagen production amount in comparison with the control group (% value when the control group is 100%) [4, 10] | Collagen production amount in comparison with the control group (% value when the control group is 100%) [4, 11] | Collagen production amount in comparison with the control group (% value when the control group is 100%) [4, 12] | further results
1 | CCOC1=C(O)C(=O)O[C@@H]1[C@@H](O)CO [3-O-ethylascorbic acid, reference compound] | 100 to 200% | + (20 to 40%:+) | 140 ± 4% | 138 ± 2% | 106 ± 14% |  |  |  |  | Residual rate ([2]; storage period 0): ◯ (◯: 80% or more and less than 90%); Coloration ([2]; storage period 0, 10 panelists): ◯ (◯: total point of 10 panelists is 25 or more); Odor ([2]; storage period 0, 10 panelists): ◯ (◯: total point of 10 panelists is 25 or more); Residual rate ([2]; storage period 2 weeks): X (X: 20% or more and less than 60%); Coloration [2, 5]: Δ (Δ: total point of 10 panelists is 16 to 24); Odor [2, 5]: Δ (Δ: total point of 10 panelists is 16 to 24); Residual rate ([2]; storage period 4 weeks): X (X: 20% or more and less than 60%); Coloration [2, 6]: Δ (Δ: total point of 10 panelists is 16 to 24); Odor [2, 6]: Δ (Δ: total point of 10 panelists is 16 to 24); Residual rate ([3]; storage period 0): ⊚ (⊚: 90% or more); Coloration ([3]; storage period 0, 10 panelists): ◯ (◯: total point of 10 panelists is 25 or more); Odor ([3]; storage period 0, 10 panelists): ◯ (◯: total point of 10 panelists is 25 or more); Residual rate ([3]; storage period 2 weeks): ◯ (◯: 80% or more and less than 90%); Coloration [3, 5]: ◯ (◯: total point of 10 panelists is 25 or more); Odor [3, 5]: ◯ (◯: total point of 10 panelists is 25 or more); Residual rate ([3]; storage period 4 weeks): ◯ (◯: 80% or more and less than 90%); Coloration [3, 6]: Δ (Δ: total point of 10 panelists is 16 to 24); Odor [3, 6]: ◯ (◯: total point of 10 panelists is 25 or more); collagen production promoting effect over time (in words) [4]: lowers over time
2 | CCCCCCCCOCC(O)COC1=C(OCC(O)CO)C(C(O)CO)OC1=O (stereo not shown) [Example 84] |  | + (20 to 40%:+) |  |  |  | + (100 to 200%:+) | 135 ± 11% | 154 ± 8% | 201 ± 16% | 
3 | O=C1OC(C(O)CO)C(OCC(O)CO)=C1O (stereo not shown) [Example 1, 3-O-glyceryl ascorbic acid] | 100 to 200% | + (20 to 40%:+) | 182 ± 7% | 209 ± 8% | 219 ± 29% |  |  |  |  | Residual rate ([3]; storage period 0): ⊚ (⊚: 90% or more); Coloration ([3]; storage period 0, 10 panelists): ◯ (◯: total point of 10 panelists is 25 or more); Odor ([3]; storage period 0, 10 panelists): ◯ (◯: total point of 10 panelists is 25 or more); Residual rate ([3]; storage period 2 weeks): ◯ (◯: 80% or more and less than 90%); Coloration [3, 5]: ◯ (◯: total point of 10 panelists is 25 or more); Odor [3, 5]: ◯ (◯: total point of 10 panelists is 25 or more); Residual rate ([3]; storage period 4 weeks): ◯ (◯: 80% or more and less than 90%); Coloration [3, 6]: ◯ (◯: total point of 10 panelists is 25 or more); Odor [3, 6]: ◯ (◯: total point of 10 panelists is 25 or more)
4 | O=C1O[C@H]([C@@H](O)CO)C([O-])=C1OP(=O)([O-])[O-].O=C1O[C@H]([C@@H](O)CO)C([O-])=C1OP(=O)([O-])[O-].[Mg+2].[Mg+2].[Mg+2] [magnesium ascorbyl phosphate, reference compound] |  | ± (<20%:±) | 276 ± 9% | 207 ± 24% | 191 ± 2% | + (100 to 200%:+) |  |  |  | collagen production promoting effect over time (in words) [4]: lowers over time
5 | CCCCCCCCC(O)COC1=C(O)C(=O)O[C@@H]1[C@@H](O)CO (stereo partly shown) [Example 46] |  | ++ (40 to 70%:++) |  |  |  | + (100 to 200%:+) | 152 ± 6% | 123 ± 11% | 254 ± 10% | 
6 | CCCCOCC(O)COC1=C(OCC)C(C(O)CO)OC1=O (stereo not shown) [Example 97] |  | + (20 to 40%:+) |  |  |  | + (100 to 200%:+) | 93 ± 4% | 111 ± 4% | 139 ± 15% | 
7 | CCCCCCCCC(O)COC1=C(OCC(O)CO)[C@@H]([C@@H](O)CO)OC1=O (stereo partly shown) [Example 29, 3-O-glyceryl-2-O-(2-hydroxydecyl) ascorbic acid] | 100 to 200% | + (20 to 40%:+) |  |  |  |  | 97 ± 19% | 116 ± 7% | 138 ± 3% | 
